Measurements from PubChem BioAssay AID1963842 (Molecular Pharmacology Branch, DTP, NCI, 2024).
“And” between values parts separate entries of the source, which are not always exact repeats. Identical values can stand only once.

Tested on: 677734-321-R-J1-PDC complex spheroid viability
Test: Anticancer human tumor 677734-321-R-J1-PDC patient-derived soft tissue sarcoma cell line growth inhibition [POLQ]
Settings: for viability, T/C: stronger effect = lower value
Method: Multicellular complex tumor spheroid response to Polymerase (POL) inhibitors (novobiocin, ART-558, RP6685) in combination with a variety of drugs and investigational agents in selected tumor cell lines
The POL inhibitors (novobiocin, ART-558, and RP6685) were evaluated both individually and in combination with standard of care and investigational anticancer small molecules within a complex spheroid model of solid tumors. . Complex spheroids include a stromal component modeled by human endothelial cells (HUVEC) and fibroblasts modeled by human mesenchymal stem cells (MSCs). The concentration ranges selected for each drug and investigational agent were based upon clinically achievable concentrations if the clinical Cmax of the agent was known.
Compounds. The drugs and investigational agents: novobiocin (NSC847541), ART-558 (NSC835418), RP-6685 (NSC848927), peposertib (NSC802822), ceralasertib (NSC780249), elimusertib (NSC800525), camonsertib (NSC841442), AZD-1390 (NSC803789), olaparib (NSC753686), talazoparib (NSC767125), rucaparib (NSC756644), sotorasib (NSC818433), MRTX-1133 (NSC836407), SN-38 (NSC673596), topotecan (NSC609699), epotoside (NSC141540), doxorubicin (NSC123127), gemcitabine (NSC613327), 5-fluorouracil (NSC19893), paclitaxel (NSC125973), vemurafenib (NSC761431), MSA-2 (NSC828583), SN-011 (NSC837082), adavosertib (NSC754352), prexasertib (NSC758257), carboplatin (NSC241240) and oxaliplatin (NSC266046), were obtained from the National Cancer Institute (NCI) Developmental Therapeutics Program Chemical Repository (21). The FDA-approved anticancer drug set is available from the Developmental Therapeutics Program at https://dtp.cancer.gov/organization/dscb/obtaining/. […] The stock solutions were prepared in dimethyl sulfoxide (DMSO, Sigma-Aldrich, St. Louis, MO, cat. D2650), except for the platinum compounds which were prepared in saline (Quality Biological, Gaithersburg, MD, cat. 114-055-101), at 800-fold the tested concentration and stored at -70 degrees C prior to their use. All drugs and investigational agents were tested over a range starting from a high concentration at or near the clinical Cmax and decreasing in half-log increments. If the clinical Cmax for an agent had not been determined, the highest concentration tested was 10 microM, except for SN-38, which was tested at a high concentration of 1 microM.
Cell Culture. All cells were maintained in an incubator at 37 degrees C and 5% CO2 with 95% humidity. The PDC lines were cultured according to standard operating procedures established by the NCI PDMR (https://pdmr.cancer.gov). Table 3 of the manuscript, lists the cell lines along with the number of the three cell types plated to form the mct-spheroids and media for tumor cell growth. After thawing, all PDC lines, except 997537-175-T-J1-PDC and 415267-285-R-J2-PDC, were cultured in Matrigel-coated flasks prepared with a working solution of 1X Ham's F-12 nutrient mix, without supplementation (Thermo Fisher Scientific, cat. 11765054), 100 U/mL penicillin-streptomycin (Thermo Fisher Scientific, cat. 15140122), and 2.5% Matrigel (Corning Inc., Corning, NY, cat. 354248) for the first three passages. The two PDC lines 997537-175-T-J1-PDC and 415267-285-R-J2-PDC were cultured on uncoated flasks. The 857933-349-R-J2-PDC line was cultured in 6C/Colon 1B media containing advanced DMEM/F-12 (Thermo Fisher Scientific, cat. 12634028), 10 mM HEPES (Thermo Fisher Scientific, cat. 15630080), 1X GlutaMAX supplement (Thermo Fisher Scientific, cat. 35050061), 0.1 mg/mL primocin (InvivoGen, San Diego, CA, cat. ant-pm-2), 10% defined fetal bovine serum, heat inactivated (HyClone Laboratories Inc., Logan, UT, cat. SH30070.03HI), 50% L-WRN conditioned media (ATCC, cat. CRL-3276), 1.25 mM N-Acetyl-L-cysteine (Sigma-Aldrich, cat. A9165), 10 mM nicotinamide (Sigma-Aldrich, cat. N0636), 1X B-27 supplement (Thermo Fisher Scientific, cat. 17504044), 1X N-2 supplement (Thermo Fisher Scientific, cat. […]

[1] = compound alone, run of 11/27/2023
[2] = compound alone, run of 12/05/2023
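Note: spheroids exposed to compounds for one week.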
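Throughout, for viability, T/C: 100% = vehicle DMSO treated spheroids.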

| Compound | viability, T/C (compound 0.0316 µM) | viability, T/C (compound 0.1 µM) | viability, T/C (compound 0.316 µM) | viability, T/C (compound 1 µM) | viability, T/C (compound 3.16 µM) | viability, T/C (compound 10 µM) | IC50 (curve of compound) | IC50 [1] [µM] | viability, T/C (compound 0.00316 µM) | viability, T/C (compound 0.01 µM) | IC50 [2] [µM] | viability, T/C (compound 0.000316 µM) | viability, T/C (compound 0.001 µM) |
| --- | --- | --- | --- | --- | --- | --- | --- | --- | --- | --- | --- | --- | --- |
| CNCc1ccc(-c2[nH]c3cc(F)cc4c3c2CCNC4=O)cc1 | 105% and 107% and 106% | 101% and 75.4% and 97.1% | 102% and 106% and 99.2% | 101% and 99.7% and 105% | 108% and 101% and 99% | 106% and 82.2% and 88.9% | > 10 µM | – | – | – | – | – | – |
| COC1C(OC(N)=O)C(O)C(Oc2ccc3c(O)c(NC(=O)c4ccc(O)c(CC=C(C)C)c4)c(=O)oc3c2C)OC1(C)C (centres undefined) | 103% [middle of 13 runs] | 104% [middle of 13 runs] | 110% [middle of 13 runs] | 104% [middle of 13 runs] | 106% [middle of 13 runs] | 106% [middle of 13 runs] | – | > 10 | – | – | – | – | – |
| COc1cc(C2c3cc4c(cc3C(OC3OC5COC(C)OC5C(O)C3O)C3COC(=O)C23)OCO4)cc(OC)c1O (centres undefined) | 104% and 100% and 109% | 89.1% and 82.7% and 89.3% | 62.1% and 53.5% and 58% | 57.5% and 29.2% and 48.4% | 31.5% and 19.5% and 25.9% | 8.04% and 9.9% and 10.2% | 0.97 µM and 0.385 µM and 0.706 µM | – | – | – | – | – | – |
| COc1cc2cc(C(=O)CCC(=O)O)sc2cc1OC | 100% and 108% and 101% | 94.4% and 93.7% and 102% | 82% and 105% and 114% | 95.8% and 98.6% and 106% | 97.5% and 107% and 106% | 105% and 99.9% and 113% | > 10 µM | – | – | – | – | – | – |
| COc1ccc([C@@H](O)c2cc(-c3ncnc4cc(N5CCOCC5)ccc34)c(F)cc2Cl)nn1 | 107% and 98.4% and 105% | 105% and 99.2% and 102% | 100% and 104% (2×) | 96.4% and 81.6% and 94.7% | 73.8% and 64.6% and 87.4% | 49.8% and 45.3% and 51% | 9.83 µM and 7.58 µM and > 10 µM | – | – | – | – | – | – |
| COc1cccc(OCCCN)c1-c1cc(Nc2cnc(C#N)cn2)n[nH]1 | 13.8% and 5.42% and 7.19% | 8.96% and 5.9% and 8.69% | 11% and 6.62% and 7.27% | 10.3% and 5.14% and 6.13% | – | – | 0.00761 µM and 0.00404 µM and 0.00615 µM | – | 96.4% and 60.4% and 103% | 35.5% and 11.5% and 11.2% | – | – | – |
| COc1cccc2c1C(=O)c1c(O)c3c(c(O)c1C2=O)CC(O)(C(=O)CO)CC3OC1CC(N)C(O)C(C)O1 (centres undefined) | 86.2% and 48.1% and 72.7% | 48.5% and 29% and 48.7% | 8% and 4.1% and 6.65% | 0.91% and 1.65% | 2.59% and 1.37% and 2.03% | 3.4% and 0.66% and 2.59% | 0.0956 µM and < 0.0316 µM and 0.0938 µM | – | – | – | – | – | – |
| Cc1cccc(N(C)C(=O)C2C(O)CCN2c2nc(C)cc(C(F)(F)F)c2C#N)c1 (centres undefined) | 101% [middle of 13 runs] | 103% [middle of 13 runs] | 107% [middle of 13 runs] | 99.2% [middle of 13 runs] | 102% [middle of 13 runs] | – | – | > 10 | – | – | > 10 | – | – |
| Cn1ncnc1[C@H]1c2n[nH]c(=O)c3cc(F)cc(c23)N[C@@H]1c1ccc(F)cc1 | 98.8% and 94.5% and 106% | 93% and 75.8% and 93.5% | – | – | – | – | > 0.1 µM | – | 97.4% and 107% and 117% | 105% and 94.7% and 104% | – | 101% and 87.2% and 106% | 104% and 93.2% and 95.4% |
| Nc1ccc(C#CCN(C(=O)Cc2ncc(C(F)(F)F)cc2C(F)(F)F)c2ccc(F)cc2)nn1 | – | 104% [middle of 13 runs] | 103% [middle of 13 runs] | – | 99.7% [middle of 13 runs] | – | – | – | – | – | > 10 | – | – |
| Nc1ccn(C2OC(CO)C(O)C2(F)F)c(=O)n1 (centres undefined) | 34.7% and 15.9% and 21.9% | 14.8% and 10.8% and 14.6% | 16.7% and 11.1% and 12.8% | 14.4% and 10% and 14.7% | 14.3% and 7.7% and 10.6% | 12.5% and 6.81% and 8.93% | < 0.0316 µM | – | – | – | – | – | – |
| O=C(Nc1ccc(O)c(NS(=O)(=O)c2ccc(F)cc2)c1)c1ccc(-c2ccccc2)cc1 | 96.9% and 104% and 110% | 100% and 107% and 109% | 108% and 112% and 104% | 94.2% and 98.8% and 106% | 68.3% and 79.4% and 89.6% | 21.9% and 20.6% and 32.8% | 4.96 µM and 5.6 µM and 7.07 µM | – | – | – | – | – | – |
| O=C(c1cc(Cc2n[nH]c(=O)c3ccccc23)ccc1F)N1CCN(C(=O)C2CC2)CC1 | 102% and 15.6% and 95.7% | 100% and 20.2% and 94.9% | 104% and 16.8% and 106% | 105% and 20.7% and 100% | 97.5% and 14.8% and 101% | 77.8% and 12.2% and 58.9% | – | – | – | – | – | – | – |
| O=c1[nH]cc(F)c(=O)[nH]1 | 116% and 111% and 113% | 101% and 86.4% and 96.7% | 108% and 104% (2×) | 85.4% and 84.6% and 91.5% | 54.7% and 62.5% and 51.4% | 44.1% and 59% and 42.7% | 5.22 µM and > 10 µM and 3.84 µM | – | – | – | – | – | – |
